Measured values published in patent US8802597B2, “Herbicidal pyrimidines” (E I du Pont de Nemours and Company, priority 2003, dated 2014).
Like-named read-outs stand apart in the source and are kept apart here.

Columns and labels:
Experiment in all cases: Test C pre/postemergence
Format in all cases: in vivo
[1] = system: pigweed (Amaranthus retroflexus); conditions: Amaranthus retroflexus, pre-emergence, Preemergence, scale 0 to 100, read-out: Plant response rating, Pigweed
Summary of the method: (§1)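 We sprayed seeded pots preemergence and 2–18 cm seedlings postemergence with test chemicals in a non-phytotoxic solvent mixture including surfactant. Greenhouse plants were visually compared with untreated controls at 12 to 14 days and scored 0 (no effect) to 100 (complete control).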

[2] = system: giant foxtail (Setaria faberii); conditions: Setaria faberi; for pest or weed control at 125 g/ha: 125 g ai/ha; for pest or weed control at 31 g/ha: 31 g ai/ha; for pest or weed control at 62 g/ha: 62 g ai/ha; for pest or weed control at 250 g/ha: 250 g ai/ha
Summary of the method: as §1

[3] = system: yellow nutsedge (Cyperus esculentus); conditions: Cyperus; for pest or weed control at 31 g/ha: 31 g ai/ha; for pest or weed control at 62 g/ha: 62 g ai/ha; for pest or weed control at 125 g/ha: 125 g ai/ha; for pest or weed control at 250 g/ha: 250 g ai/ha
Summary of the method: as §1

[4] = system: Surinam grass (Brachiaria decumbens); conditions: Urochloa decumbens; for pest or weed control at 125 g/ha: 125 g ai/ha; for pest or weed control at 31 g/ha: 31 g ai/ha; for pest or weed control at 62 g/ha: 62 g ai/ha; for pest or weed control at 250 g/ha: 250 g ai/ha
Summary of the method: as §1

[5] = system: common (oilseed) sunflower (Helianthus annuus); conditions: Helianthus annuus, pre-emergence, Preemergence, read-out: Plant response rating, Sunflower
Summary of the method: as §1

[6] = system: johnsongrass (Sorghum halepense); conditions: Sorghum halepense; for pest or weed control at 31 g/ha: 31 g ai/ha; for pest or weed control at 62 g/ha: 62 g ai/ha; for pest or weed control at 125 g/ha: 125 g ai/ha; for pest or weed control at 250 g/ha: 250 g ai/ha
Summary of the method: as §1

[7] = system: morningglory (Ipomoea coccinea); conditions: Ipomoea; for pest or weed control at 31 g/ha: 31 g ai/ha; for pest or weed control at 62 g/ha: 62 g ai/ha; for pest or weed control at 125 g/ha: 125 g ai/ha; for pest or weed control at 250 g/ha: 250 g ai/ha
Summary of the method: as §1

[8] = post-emergence, Postemergence, scale 0 to 100 (0 no effect, 100 complete control), read-out: Foxtail, Giant plant response rating
[9] = pre-emergence, Preemergence, scale 0 to 100, 0 no effect, 100 complete control, read-out: Plant response rating, Foxtail, Giant
[10] = pre-emergence, Preemergence, scale 0 to 100, read-out: Plant response rating, Foxtail, Giant
[11] = post-emergence, Postemergence, scale 0 to 100 (0 no effect, 100 complete control), read-out: Nutsedge, Yellow plant response rating
[12] = pre-emergence, Preemergence, scale 0 to 100, 0 no effect, 100 complete control, read-out: Plant response rating, Nutsedge, Yellow
[13] = pre-emergence, Preemergence, scale 0 to 100, read-out: Plant response rating, Nutsedge, Yellow
[14] = post-emergence, Postemergence, scale 0 to 100 (0 no effect, 100 complete control), read-out: Surinam Grass plant response rating
[15] = pre-emergence, Preemergence, scale 0 to 100, 0 no effect, 100 complete control, read-out: Plant response rating, Surinam Grass
[16] = pre-emergence, Preemergence, scale 0 to 100, read-out: Plant response rating, Surinam Grass
[17] = post-emergence, Postemergence, scale 0 to 100 (0 no effect, 100 complete control), read-out: Johnsongrass plant response rating
[18] = pre-emergence, Preemergence, scale 0 to 100, 0 no effect, 100 complete control, read-out: Plant response rating, Johnsongrass
[19] = pre-emergence, Preemergence, scale 0 to 100, read-out: Plant response rating, Johnsongrass
[20] = post-emergence, Postemergence, scale 0 to 100 (0 no effect, 100 complete control), read-out: Morningglory plant response rating
[21] = pre-emergence, Preemergence, scale 0 to 100, 0 no effect, 100 complete control, read-out: Plant response rating, Morningglory
[22] = pre-emergence, Preemergence, scale 0 to 100, read-out: Plant response rating, Morningglory

For `COC(=O)c1nc(C2CC2)nc(N)c1Cl` [Compound 9, methyl 6-amino-5-chloro-2-cyclopropyl-4-pyrimidinecarboxylate], the pest or weed control at 125 g/ha ([1]; 125 g ai/ha) was 100%, the pest or weed control at 250 g/ha ([1]; 250 g ai/ha) was 100% and the pest or weed control at 125 g/ha [2, 8] was 75%. For the same molecule, the pest or weed control at 31 g/ha ([2]; post-emergence, Postemergence, read-out: Plant response rating (scale of 0 to 100), Foxtail, Giant) was 60%, the pest or weed control at 62 g/ha [2, 8] was 65% and the pest or weed control at 250 g/ha ([2]; post-emergence, Postemergence, scale 0 to 100, read-out: Plant response rating, Foxtail, Giant) was 80%. The pest or weed control at 31 g/ha [2, 9] was 0%, the pest or weed control at 62 g/ha [2, 9] was 0% and the pest or weed control at 125 g/ha [2, 10] was 75%. The pest or weed control at 250 g/ha [2, 10] was 80%, the pest or weed control at 31 g/ha ([3]; post-emergence, Postemergence, read-out: Plant response rating (scale of 0 to 100), Nutsedge, Yellow) was 0% and the pest or weed control at 62 g/ha [3, 11] was 0%. For the same molecule, the pest or weed control at 125 g/ha [3, 11] was 0%, the pest or weed control at 250 g/ha ([3]; post-emergence, Postemergence, scale 0 to 100, read-out: Plant response rating, Nutsedge, Yellow) was 0% and the pest or weed control at 31 g/ha [3, 12] was 20%. For the same molecule, the pest or weed control at 62 g/ha [3, 12] was 100%, the pest or weed control at 125 g/ha [3, 13] was 100% and the pest or weed control at 250 g/ha [3, 13] was 100%. It also gave a pest or weed control at 125 g/ha [4, 14] of 75%, a pest or weed control at 31 g/ha ([4]; post-emergence, Postemergence, read-out: Plant response rating (scale of 0 to 100), Surinam Grass) of 45% and a pest or weed control at 62 g/ha [4, 14] of 65%. It also gave a pest or weed control at 250 g/ha ([4]; post-emergence, Postemergence, scale 0 to 100, read-out: Plant response rating, Surinam Grass) of 80%, a pest or weed control at 31 g/ha [4, 15] of 95% and a pest or weed control at 62 g/ha [4, 15] of 100%. The pest or weed control at 125 g/ha [4, 16] was 100%, the pest or weed control at 250 g/ha [4, 16] was 100% and the pest or weed control at 31 g/ha ([5]; 31 g ai/ha, scale 0 to 100, 0 no effect, 100 complete control) was 100%. It also gave a pest or weed control at 62 g/ha ([5]; 62 g ai/ha, scale 0 to 100, 0 no effect, 100 complete control) of 100%, a pest or weed control at 125 g/ha ([5]; 125 g ai/ha, scale 0 to 100) of 100% and a pest or weed control at 250 g/ha ([5]; 250 g ai/ha, scale 0 to 100) of 100%. For the same molecule, the pest or weed control at 31 g/ha ([6]; post-emergence, Postemergence, read-out: Plant response rating (scale of 0 to 100), Johnsongrass) was 55%, the pest or weed control at 62 g/ha [6, 17] was 65% and the pest or weed control at 125 g/ha [6, 17] was 80%. The pest or weed control at 250 g/ha ([6]; post-emergence, Postemergence, scale 0 to 100, read-out: Plant response rating, Johnsongrass) was 85%, the pest or weed control at 31 g/ha [6, 18] was 15% and the pest or weed control at 62 g/ha [6, 18] was 45%. For the same molecule, the pest or weed control at 125 g/ha [6, 19] was 65%, the pest or weed control at 250 g/ha [6, 19] was 90% and the pest or weed control at 31 g/ha ([7]; post-emergence, Postemergence, read-out: Plant response rating (scale of 0 to 100), Morningglory) was 90%. The pest or weed control at 62 g/ha [7, 20] was 95%, the pest or weed control at 125 g/ha [7, 20] was 100% and the pest or weed control at 250 g/ha ([7]; post-emergence, Postemergence, scale 0 to 100, read-out: Plant response rating, Morningglory) was 100%. The pest or weed control at 31 g/ha [7, 21] was 100%, the pest or weed control at 62 g/ha [7, 21] was 100% and the pest or weed control at 125 g/ha [7, 22] was 100%. The pest or weed control at 250 g/ha [7, 22] was 100%.
